{"source": "patent US10308682B2", "about": "“Inhibition of tumor growth with aggregates of small molecules” (BRANDEIS UNIVERSITY, priority 2013, dated 2019)", "key": {"[1]": {"test_system": "HeLa cells", "test": "Cell viability assay (MTT), HeLa cells", "type": "cell-based", "description": "(§1) Cells in exponential growth phase were seeded in a 96 well plate at a concentration of 50,000 cell/well. The cells were allowed to attach to the wells for 24 h at 37° C., 5% CO2, then the culture medium was removed and 100 μL new culture medium containing 1 at gradient concentrations was placed into each well. After culturing at 37° C., 5% CO2 for desired time, each well was added by 10 μL of 5 mg/mL MTT 43-(4,5-Dimethylthiazol-2-yl)-2,5-diphenyltetrazolium bromide), and the plated cells were incubate at dark for 4 h. 100 μL 10% SDS with 0.01 M HCl was added to each well to stop the reduction reaction and to dissolve the purple. After incubation of the cells at 37° C. for overnight, the viability is measured. Data represent the mean±standard deviation of three independent experiments.\n(§2) The estimation of the threshold concentration of aggregation (320-340 μM) for 1 allows us to examine the cytotoxicity of 1 in monomer and molecular aggregate forms. We first tested the cytotoxicity of 1 towards HeLa cells, the most widely studied cancer cell line, below and above the threshold concentration."}, "[2]": {"test_system": "MCF-7", "test": "Cell viability assay (MTT), MCF-7", "type": "cell-based", "description": "as §1, §2"}, "[3]": {"test_system": "T98G", "test": "Cell viability assay (MTT), T98G", "type": "cell-based", "description": "as §1, §2"}, "[4]": {"test_system": "HeLa tumors", "test": "Xenograft mouse model, HeLa tumors, peritumoral injection", "type": "in vivo, Nu/nu mice", "description": "FIG. 2 depicts the cytotoxicity of 1. Cell viability assay (MTT) of HeLa cells after 24 and 48 h of treatment with (a) as prepared or (b) filtered medium containing different concentrations of 1. Also shown are MTT assays of 1 towards (c) MCF 7, (d) HepG2, (e) T98G and (f) PC12 cell lines. Data are presented as mean±SD of three independent experiments. (g) Tumor progression curves of mice bearing HeLa tumors. 0.1 mL of 1 at 5 mM or 0.5 mM in PBS buffers or just PBS buffer as control (six doses, starting day 1) was subcutaneous peritumorally injected every three days. Data are presented as mean±SD of relative tumor volume (n=4 for treatment groups and n=3 for control group). *p<0.05, by Student's t test. (at day 19, 5 mM=bottom data point; 0.5 mM=middle data point; control=top data point). (h) A representative image to show the mice, started with similar initial tumor volume (V0), from each group on 19th day of treatment. White arrows point at tumor. See also FIG. 9, FIG. 10, and FIG. 11.\nNu/nu mice were injected with HeLa cells (5×10^6) subcutaneously for tumor development. Treatment was started when average tumor size reached 30 mm^3. Mice were divided into three groups. One group (n=3) received 0.1 mL PBS buffer as control, the other two groups (n=4) received 0.1 mL of 1 at 5 mM or 0.5 mM. Six doses were given every three days starting day 1. Progression of tumor was monitored until 19th day of the treatment.\nTo further assess the inhibitory effect of molecular aggregates of 1 to cancer cells, we inoculated HeLa cells on nude mice and treated the xenograft tumors with molecular aggregates of 1 by peritumoral injection."}, "[5]": {"test": "Thioflavin T fluorescence quantification of aggregates of 1", "type": "physicochemical", "conditions": "ThT emission, PBS buffer"}, "[6]": {"test_system": "PC12 cells", "test": "Intracellular concentration of 1 in PC12 cells by LC-MS", "type": "cell-based", "conditions": "12 h at 37° C.", "description": "FIG. 10 depicts the long term cytotoxicity of 1 on PC12 cells. Related to FIG. 2. (a) MTT viability test of cell incubated with gradient concentration of 1 for up to 7 days without changing medium. Data are presented as mean±SD of three independent experiments. (b) Intracellular concentration of 1 in PC12 cells treated with 1 for 12 h at 37° C. measured by LC-MS (left bar=400 μM; right bar=300 μM). (c) Cells were subcultured and re-seeded with new medium containing the same concentration of 1 (0 for control group and 400 μM for test group) every 4 days. Data are presented as mean±SD of three independent experiments.\nFIG. 21 depicts the intracellular concentration of 1 in PC12 and T98G cells after incubation with 400 μM of 1 for 12 h. Cells in exponential growth phase were seeded in a 10 cm petri dish at 10,000 cell/mL. The cells were allowed to attach for 24 h at 37° C., 5% CO2. The culture medium was removed, and new culture medium containing 1 at 0 or 400 μM was added. After 12 h of incubation, cells were washed with PBS buffer 3 times and collected by cell scraper with 1 mL of PBS buffer. The cell suspension was centrifuged at 600 g for 5 min to obtain a cell pellet. 10 μL of the cell pellet were lysed in 200 μL of water and 200 μL of MeOH. […] The concentration of 1 in the lysate was measured by LC-MS."}}}
{"smiles": "O=C(Cc1ccc2ccccc2c1)N[C@@H](Cc1ccccc1)C(=O)N[C@@H](Cc1ccccc1)C(=O)O", "note": "[Compound 1]", "values": [{"measurement": "concentration at which molecular aggregates exhibit cytotoxicity", "setting": "[1]", "value": 400, "unit": "µM"}, {"measurement": "concentration at which molecular aggregates exhibit cytotoxicity, weight/volume", "setting": "[1]; 400 μM converted", "value": "about 0.19 mg/mL"}, {"measurement": "cytotoxicity towards HeLa cells", "setting": "[1]; 200 and 300 μM, below threshold concentration", "value": "little cytotoxicity"}, {"measurement": "cell death of HeLa cells, extended assay", "setting": "[1]; 200 or 300 μM, 72 h", "value": "hardly results in significant cell death"}, {"measurement": "time dependent viability of HeLa cells", "setting": "[1]; 400 and 500 μM", "value": "little loss of cell viability until after 38 h"}, {"measurement": "cytotoxicity towards HeLa cells after removal of aggregates", "setting": "[1]; 400 and 500 μM, medium passed through 0.22 μm PVDF filter", "value": "largely alleviates the cytotoxicity"}, {"measurement": "viability of the HeLa cells", "setting": "[1]; 400 and 500 μM, within 48 h, as prepared medium", "value": "less than 20%"}, {"measurement": "cytotoxicity towards MCF-7", "setting": "[2]", "value": "decreases of cell viabilities only observed at 400 and 500 μM"}, {"measurement": "cytotoxicity towards T98G", "setting": "[3]", "value": "decreases of cell viabilities only observed at 400 and 500 μM"}, {"measurement": "effect on tumor growth", "setting": "[4]; 0.5 mM (~1 mg/kg), 0.1 mL peritumoral, every three days", "value": "little effect on tumor growth"}, {"measurement": "surface of the skin covering and around the tumor", "setting": "[4]; 5 mM", "value": "intact (with no ulceration or sclerosis)"}, {"measurement": "effect on tumor progression", "setting": "[4]; 5 mM (~10 mg/kg), 0.1 mL peritumoral, every three days", "value": "starts to inhibit tumor progression after 10th day of treatment"}, {"measurement": "tumor size versus 0.5 mM group and control group", "setting": "[4]; 5 mM, 19th day of treatment", "value": "significantly smaller"}, {"measurement": "body weight change", "setting": "[4]; 0.1 mL of 5 mM or 0.5 mM", "value": "no significant weight loss or weight gain"}, {"measurement": "threshold concentration for the formation of molecular aggregates", "setting": "[5]", "value": "320 to 340", "unit": "µM"}, {"measurement": "accumulation of 1 in PC12 cells versus HeLa cells", "setting": "[6]", "value": "much less amount of 1 than HeLa cells do"}]}
